According to patent US20080021055A1, “Novel cycloalkyl derivatives as inhibitors of bone resorption and vitronectin receptor antagonists” (Aventis Pharma S.A., priority 1996, published 2008):

Molecular target: T1, vitronectin receptor αvβ3 (Homo sapiens, UniProt P05106+P06756)
T1 construct: expressed in transfected cells
Test: Vn/293 cell test: inhibition of the binding of 293 cells to human vitronectin
Format: cell-based
Settings: 293 cells cotransfected with αv and β3 subunits, binding to plates coated with human vitronectin, 90 min at 37° C.
Description: The inhibitory action of the compounds according to the invention against the vitronectin receptor […] can be determined, for example, as described below:
Test for the measurement of the inhibition of the binding of 293 cells to human vitronectin (abbreviated in the test results to Vn/293 cell test)
1. Purification of Human Vitronectin
Human vitronectin was isolated from human plasma and purified by affinity chromatography according to the method of Yatohyo et al., Cell Structure and Function, 1988, 23, 281-292.
293 cells, a human embryonic kidney cell line, which were cotransfected with DNA sequences for the αv and β3 subunits of the vitronectin receptor were selected according to the FACS method with a view to a high expression rate (>500,000 αvβ3 receptors/cell). The selected cells were cultured and sorted again by means of FACS to obtain a stable cell line (15 D) with expression rates of >1,000,000 copies of αvβ3 per cell.
A Linbro 96-well tissue culture plate with a flat bottom was coated overnight at 4° C. with human vitronectin (0.01 mg/ml, 0.05 ml/well) in phosphate-buffered saline solution (PBS) and then blocked with 0.5% strength BSA. […] The reaction was stopped with a glycine (50 mmol)/EDTA (5 mmol) buffer (pH 10.4) and the absorption of each well was measured at 405-650 nm. The data were evaluated using standard methods.

T1 sequence (P06756 31-889 limits assumed): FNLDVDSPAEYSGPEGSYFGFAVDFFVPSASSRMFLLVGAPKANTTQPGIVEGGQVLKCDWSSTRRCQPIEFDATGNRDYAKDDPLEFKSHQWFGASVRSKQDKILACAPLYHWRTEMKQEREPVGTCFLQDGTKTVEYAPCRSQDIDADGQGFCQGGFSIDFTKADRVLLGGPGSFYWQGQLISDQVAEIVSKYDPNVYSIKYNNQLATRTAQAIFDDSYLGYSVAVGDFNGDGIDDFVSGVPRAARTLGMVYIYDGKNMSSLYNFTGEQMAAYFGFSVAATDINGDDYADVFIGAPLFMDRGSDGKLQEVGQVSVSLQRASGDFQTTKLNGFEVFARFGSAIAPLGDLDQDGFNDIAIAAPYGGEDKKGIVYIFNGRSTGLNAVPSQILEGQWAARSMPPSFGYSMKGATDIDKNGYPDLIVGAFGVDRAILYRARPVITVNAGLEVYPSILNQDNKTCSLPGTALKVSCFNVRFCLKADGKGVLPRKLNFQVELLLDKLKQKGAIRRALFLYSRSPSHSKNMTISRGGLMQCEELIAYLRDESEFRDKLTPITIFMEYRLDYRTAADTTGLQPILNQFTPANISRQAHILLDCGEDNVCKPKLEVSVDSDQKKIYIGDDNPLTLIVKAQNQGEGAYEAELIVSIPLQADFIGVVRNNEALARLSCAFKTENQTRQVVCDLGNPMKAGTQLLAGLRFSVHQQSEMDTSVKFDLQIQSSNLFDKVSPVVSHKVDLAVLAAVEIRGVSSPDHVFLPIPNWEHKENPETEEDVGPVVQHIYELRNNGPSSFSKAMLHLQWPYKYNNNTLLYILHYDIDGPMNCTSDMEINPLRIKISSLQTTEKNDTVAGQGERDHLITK
T1 sequence (P06756 891-1048 limits assumed): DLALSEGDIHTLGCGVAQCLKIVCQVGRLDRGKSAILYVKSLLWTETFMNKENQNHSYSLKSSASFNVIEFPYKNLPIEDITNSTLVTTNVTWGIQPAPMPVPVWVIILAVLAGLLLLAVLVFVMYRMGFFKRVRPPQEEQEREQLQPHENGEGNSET
T1 sequence (P05106 27-788): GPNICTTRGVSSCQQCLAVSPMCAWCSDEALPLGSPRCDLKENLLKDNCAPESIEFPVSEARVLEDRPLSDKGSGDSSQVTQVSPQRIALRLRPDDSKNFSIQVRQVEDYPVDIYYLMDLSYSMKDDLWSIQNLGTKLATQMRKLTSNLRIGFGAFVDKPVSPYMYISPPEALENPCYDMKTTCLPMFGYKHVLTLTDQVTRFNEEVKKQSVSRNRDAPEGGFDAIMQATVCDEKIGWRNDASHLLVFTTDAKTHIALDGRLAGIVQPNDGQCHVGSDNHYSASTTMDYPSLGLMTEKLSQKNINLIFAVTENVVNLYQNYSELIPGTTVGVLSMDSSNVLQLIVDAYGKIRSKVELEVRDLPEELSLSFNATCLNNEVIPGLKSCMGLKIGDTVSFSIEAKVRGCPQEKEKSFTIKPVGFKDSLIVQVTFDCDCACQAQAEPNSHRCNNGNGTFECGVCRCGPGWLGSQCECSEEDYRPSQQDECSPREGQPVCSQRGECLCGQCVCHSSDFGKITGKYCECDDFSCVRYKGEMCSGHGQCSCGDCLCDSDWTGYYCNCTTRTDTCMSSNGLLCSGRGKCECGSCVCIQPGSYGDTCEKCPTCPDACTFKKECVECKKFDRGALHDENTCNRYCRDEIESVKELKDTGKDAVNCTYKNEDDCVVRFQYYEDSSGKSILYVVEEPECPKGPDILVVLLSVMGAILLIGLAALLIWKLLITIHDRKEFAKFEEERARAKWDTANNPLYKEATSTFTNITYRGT

IC50	SMILES
32 nM	N=C(N)NC(=O)CCCOc1ccc(C[C@H](NC(=O)OCC23CC4CC(CC(C4)C2)C3)C(=O)O)cc1 [Example 1, (2S)-2-(1-Adamantylmethyloxycarbonylamino)-3-(4-(3-guanidinocarbonylpropyloxy)phenyl)propionic acid]
32 nM	O=C(CCc1ccc(C(=O)NC[C@H](NC(=O)OCC23CC4CC(CC(C4)C2)C3)C(=O)O)cc1)NC1=NCCCN1 [Example 3, (2S)-2-(1-Adamantylmethyloxycarbonylamino)-3-(4-(2-(1,4,5,6-tetra-hydropyrimidin-2-ylcarbamoyl)ethyl)benzoylamino)propionic acid]
